Source: patent publication EP0973746B1, “SUBSTITUTED 3-CYANO QUINOLINES” (Wyeth Holdings Corporation, priority 1997, dated 1998)
In brackets after ≈: the same amount, converted by molar mass. Several values for one entry are separate records, joined by “and”; a condition that tells them apart may be missing. Identical values can stand only once. Like-named read-outs stand apart in the source and are kept apart here.

Experiments:
A27805 = test: Inhibition of cancer cell growth as measured by cell number, A27805; assay type: cell-based; conditions: Homo sapiens, 48 h, read-out: IC50 A27805
A549 = test: Inhibition of cancer cell growth as measured by cell number, A549; assay type: cell-based; conditions: Homo sapiens, A549, 48 h, read-out: IC50 A549
SKBR3 = test: Inhibition of cancer cell growth as measured by cell number, SKBR3; assay type: cell-based, human; conditions: Homo sapiens, SK-BR-3, 48 h, read-out: IC50 SKBR3, cell number, Sulforhodamine B, 48 hours exposure;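 note: SK-BR-3 cells were selected as a line overexpressing HER2/neu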
Excerpt: (§1) The cell lines were chosen since they overexpressed epidermal growth factor receptor (EGFR) (i.e. A431) or HER2/neu (SKBR3), or had little to no expression of the these receptors (SW620, LOX, MCF7).

MIP = test: Inhibition of cancer cell growth as measured by cell number, MIP; assay type: cell-based; conditions: Homo sapiens; cell number, Sulforhodamine B, 48 hours exposure; Table 4; read-out: IC50 MIP
LNCAP = test: Inhibition of cancer cell growth as measured by cell number, LNCAP; assay type: cell-based; conditions: Homo sapiens, 48 h, read-out: IC50 LNCAP
HTB161 = test: Inhibition of cancer cell growth as measured by cell number, HTB161; assay type: cell-based; conditions: Homo sapiens, 48 h, read-out: IC50 HTB161
A2780DDP = test: Inhibition of cancer cell growth as measured by cell number, A2780DDP; assay type: cell-based; conditions: Homo sapiens, 48 h, read-out: IC50 A2780DDP
MCF7 = test: Inhibition of cancer cell growth as measured by cell number, MCF7; assay type: cell-based, human; conditions: Homo sapiens, MCF7, 48 h, read-out: IC50 MCF7, cell number, Sulforhodamine B, 48 hours exposure;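 note: MCF7 was included as a line with little or no EGFR or HER2/neu expression, in contrast to the receptor-overexpressing lines of the panel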
Excerpt: as §1

B7474 = test: Inhibition of cancer cell growth as measured by cell number, B7474; assay type: cell-based; conditions: Homo sapiens, 48 h, read-out: IC50 B7474
NHEK = test: Inhibition of cell growth by incorporation of [3H]-thymidine, NHEK; assay type: cell-based, human; conditions: Homo sapiens, read-out: IC50 NHEK
[1] = system: human epidermoid tumors (A431); test: In vivo inhibition of the growth of human epidermoid tumors (A431); conditions: for S/T = No. Survivors/No. Treated: Day +28 post tumor staging; for tumor growth was inhibited: 100 mg/kg administered i.p. during days 1-10
Procedure, shortened: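 Female BALB/c nu/nu mice from Charles River were injected subcutaneously with 5 X 10^6 human epidermoid (A431) tumor cells. Once tumors weighed 100 to 150 mg, animals were randomized into treatment groups on day zero, and untreated controls were included. Tumor mass, calculated as (length X width^2)/2, was measured every 7 days for 28 days after staging. Relative growth was mean mass on days 7, 14, 21 and 28 divided by the day-zero mean.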

HL60 = test: Inhibition of cancer cell growth as measured by cell number, HL60; assay type: cell-based; conditions: Homo sapiens, HL-60, 48 h, read-out: IC50 HL60
CCL228 = test: Inhibition of cancer cell growth as measured by cell number, CCL228; assay type: cell-based; conditions: Homo sapiens, 48 h, read-out: IC50 CCL228
CCRF-CFM = test: Inhibition of cancer cell growth as measured by cell number, CCRF-CFM; assay type: cell-based; conditions: Homo sapiens, 48 h, read-out: IC50 CCRF-CFM
T47D = test: Inhibition of cancer cell growth as measured by cell number, T47D; assay type: cell-based; conditions: Homo sapiens, 48 h, read-out: IC50 T47D
NEC = test: Inhibition of cancer cell growth as measured by cell number, NEC; assay type: cell-based; conditions: Homo sapiens, 48 h, read-out: IC50 NEC
CACO2 = test: Inhibition of cancer cell growth as measured by cell number, CACO2; assay type: cell-based; conditions: Homo sapiens, Caco-2, 48 h, read-out: IC50 CACO2
SW948 = test: Inhibition of cancer cell growth as measured by cell number, SW948; assay type: cell-based; conditions: Homo sapiens, SW948, 48 h, read-out: IC50 SW948
[2] = target: epidermal growth factor receptor kinase (Homo sapiens, UniProt P00533); test: biochemical
Description: The enzyme was obtained as a membrane extract of A431 cells (American Type Culture Collection, Rockville, MD). A431 cells were grown in T175 flasks to 80% confluency. The cells were washed twice with phosphate buffered saline (PBS) without Ca^2+. Flasks were rotated for 1.5 hours in 20 ml PBS with 1.0 mM ethylenediaminetetraacetic acid (EDTA) at room temperature and centrifuged at 600g for 10 minutes. The cells were solubilized in 1 ml per 5 x 10^6 cells of cold lysis buffer {10mM 4-(2-hydroxyethyl)-1-piperazineethane-sulfonic acid (HEPES), pH 7.6, 10 mM NaCl, 2mM EDTA, 1mM phenylmethyl-sulfonyl-fluoride (PMSF), 10 mg/ml aprotinin, 10 mg/ml leupeptin, 0.1 mM sodium orthovanadate} in a Dounce homogenizer with 10 strokes on ice. The lysate was centrifuged at 600g for 10 minutes first to clear cell debris and the supernatant further centrifuged at 100,000 g for 30 min at 4°C. The membrane pellet was suspended in 1.5 ml HNG buffer (50 mM HEPES, pH 7.6, 125 mM NaCl, 10% glycerol). The membrane extract was divided into aliquots, immediately frozen in liquid nitrogen and stored at -70°C.
Compounds to be evaluated were made into 10 mg/ml stock solutions in 100% dimethylsulfoxide (DMSO). Prior to experiment, stock solutions were diluted to 500 mM with buffer (30 mM Hepes pH 7.4) and then serially diluted to the desired concentration.
An aliquot of the A431 membrane extract (10 mg/ml) was diluted in 30 mM HEPES (pH 7.4) to give a protein concentration of 50 ug/ml. […] To this was added the ^33p-ATP (10 mCi/ml) diluted 1:10 in assay buffer along with the substrate peptide at a concentration of 0.5 mM (control reactions get no test compound) and the reaction was allowed to proceed for 30 min at 30°C. The reaction was stopped with 10% TCA and left on ice for at least 10 min after which tubes were microcentrifuged at full speed for 15 min. The a portion of the supernatants were spotted on P81 phosphocellulose discs and washed twice in 1% acetic acid then water for 5 min each followed by scintillation counting. […] The % inhibition of the test compound was determined for at least three different concentrations and the IC50 value was evaluated from the dose response curve. […] CPM(control) is in units of counts per minute and was a number expressing the amount of radiolabeled ATP (g-^33P) incorporated into the RR-SRC peptide substrate by the enzyme after 30 minutes at 30°C in the absence of test compound as measured by liquid scintillation counting. The CPM values were corrected for the background counts produced by ATP in the absence of the enzymatic reaction. The IC50 values reported in TABLE 1 are averages of the number of tests conducted.

CX1 = test: Inhibition of cancer cell growth as measured by cell number, CX1; assay type: cell-based; conditions: Homo sapiens, CX-1, 48 h, read-out: IC50 CX1
LX1 = test: Inhibition of cancer cell growth as measured by cell number, LX1; assay type: cell-based; conditions: Homo sapiens, LX-1, 48 h, read-out: IC50 LX1
SW620 = test: Inhibition of cancer cell growth as measured by cell number, SW620; assay type: cell-based, human; conditions: Homo sapiens, SW-620, 48 h, read-out: IC50 SW620, cell number, Sulforhodamine B, 48 hours exposure;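 note: SW620 was included as a cell line with little or no EGFR or HER2/neu expression, in contrast to receptor-overexpressing lines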
Excerpt: as §1

DU145 = test: Inhibition of cancer cell growth as measured by cell number, DU145; assay type: cell-based; conditions: Homo sapiens, DU-145, 48 h, read-out: IC50 DU145
A431 [3] = test: Inhibition of cell growth by incorporation of [3H]-thymidine, A431; assay type: cell-based, human; conditions: Homo sapiens, A-431, read-out: IC50 A431
[4] = target: recombinant human MEK 1 (MAPKK) and recombinant human ERK2 (MAPK); test: Mitogen Activated Protein Kinase (MAPK) assay, two component coupled MEK 1 / ERK2; assay type: biochemical; conditions: separate entries for the same compound = evaluated more than one time;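 note: MEK 1-activated ERK2 phosphorylates MBP or Myc peptide with 33P-ATP, filter capture and scintillation counting, inhibitor preincubated with ERK2 30 min at 0 °C, inhibition relative to uninhibited control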
LS174T = test: Inhibition of cancer cell growth as measured by cell number, LS174T; assay type: cell-based; conditions: Homo sapiens, 48 h, read-out: IC50 LS174T
A431 [5] = test: Inhibition of cancer cell growth as measured by cell number, A431; assay type: cell-based, human; conditions: Homo sapiens, A-431, 48 h, read-out: IC50 A431, cell number, Sulforhodamine B, 48 hours exposure;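 note: human A431 line, picked because it overexpresses epidermal growth factor receptor (EGFR)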
Excerpt: as §1

LOX = test: Inhibition of cancer cell growth as measured by cell number, LOX; assay type: cell-based, human; conditions: Homo sapiens, LOX, 48 h, read-out: IC50 LOX, cell number, Sulforhodamine B, 48 hours exposure;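 note: LOX cells served as a line with low or absent EGFR and HER2/neu expression, in contrast to receptor-overexpressing lines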
Excerpt: as §1

HCT15 = test: Inhibition of cancer cell growth as measured by cell number, HCT15; assay type: cell-based; conditions: Homo sapiens, HCT-15, 48 h, read-out: IC50 HCT15
[6] = 10 mg/kg/dose IP on days 1 through 10
[7] = 50 mg/kg/dose IP on days 1 through 10
[8] = 100 mg/kg/dose IP on days 1 through 10

Chain of epidermal growth factor receptor kinase (P00533 25-1210): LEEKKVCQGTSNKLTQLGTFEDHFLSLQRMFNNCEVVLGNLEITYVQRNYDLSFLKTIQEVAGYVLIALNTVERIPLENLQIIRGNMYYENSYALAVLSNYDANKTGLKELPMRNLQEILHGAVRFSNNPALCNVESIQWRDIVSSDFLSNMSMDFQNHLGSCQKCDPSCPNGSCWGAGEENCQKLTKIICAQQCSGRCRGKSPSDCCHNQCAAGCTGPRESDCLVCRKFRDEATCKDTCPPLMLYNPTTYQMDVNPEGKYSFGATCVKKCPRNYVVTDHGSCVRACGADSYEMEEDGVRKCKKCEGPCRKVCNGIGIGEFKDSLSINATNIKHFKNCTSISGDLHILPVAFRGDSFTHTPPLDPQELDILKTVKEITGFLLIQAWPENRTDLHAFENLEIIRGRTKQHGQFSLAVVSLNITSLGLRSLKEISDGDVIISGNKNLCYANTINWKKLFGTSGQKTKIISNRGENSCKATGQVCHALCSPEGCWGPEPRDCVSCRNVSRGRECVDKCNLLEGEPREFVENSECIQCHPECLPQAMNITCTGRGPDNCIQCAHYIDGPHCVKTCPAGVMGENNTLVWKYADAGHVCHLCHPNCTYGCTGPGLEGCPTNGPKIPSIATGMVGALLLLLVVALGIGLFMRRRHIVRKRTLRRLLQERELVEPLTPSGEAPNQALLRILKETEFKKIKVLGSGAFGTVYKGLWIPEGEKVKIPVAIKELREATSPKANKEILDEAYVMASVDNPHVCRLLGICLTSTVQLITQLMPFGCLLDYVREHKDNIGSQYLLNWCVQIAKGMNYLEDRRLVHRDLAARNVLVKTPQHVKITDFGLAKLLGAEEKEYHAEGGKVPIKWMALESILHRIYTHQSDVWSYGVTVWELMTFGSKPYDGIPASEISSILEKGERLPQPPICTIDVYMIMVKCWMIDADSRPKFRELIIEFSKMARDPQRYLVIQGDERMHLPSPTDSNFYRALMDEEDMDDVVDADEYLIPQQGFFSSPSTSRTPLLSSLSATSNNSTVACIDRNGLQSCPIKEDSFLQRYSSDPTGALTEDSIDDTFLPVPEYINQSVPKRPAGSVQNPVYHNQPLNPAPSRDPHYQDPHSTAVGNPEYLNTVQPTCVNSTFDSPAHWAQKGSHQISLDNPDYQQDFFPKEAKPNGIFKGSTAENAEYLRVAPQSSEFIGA

Question: Which IC50 (A27805) does the source give for CCOc1cc2ncc(C#N)c(Nc3cccc(Br)c3)c2cc1OCC [Example 47, 4-[(3-Bromophenyl)amino]6,7-diethoxy-3-quinolinecarbonitrile] here?
Answer: Its IC50 is 0.053 µg/mL (≈ 0.129 µM).

Question: What about the IC50 (A549) of the same molecule?
Answer: Its IC50 is 0.0679 µg/mL (≈ 0.165 µM).

Question: And the IC50 (SKBR3; Table 7)?
Answer: Its IC50 is 0.0467 µg/mL (≈ 0.113 µM).

Question: What about the IC50 (SKBR3; Table 8) of the same molecule?
Answer: Its IC50 is less than 0.01 µg/mL.

Question: And the IC50 (MIP)?
Answer: Its IC50 is 0.0693 µg/mL (≈ 0.168 µM).

Question: And the IC50 (LNCAP)?
Answer: The IC50 was 0.0337 µg/mL (≈ 0.0816 µM).

Question: What about the IC50 (HTB161) of the same molecule?
Answer: The IC50 was 0.00395 µg/mL (≈ 0.00957 µM).

Question: What about the IC50 (A2780DDP) of the same molecule?
Answer: Its IC50 is 0.0645 µg/mL (≈ 0.157 µM).

Question: What about the IC50 (MCF7; Table 5) of the same molecule?
Answer: Its IC50 is 0.072 µg/mL (≈ 0.175 µM).

Question: And the IC50 (MCF7; Table 8)?
Answer: The IC50 was 0.02 µg/mL (≈ 0.0485 µM).

Question: What about the IC50 (B7474) of the same molecule?
Answer: The IC50 was 0.233 µg/mL (≈ 0.566 µM).

Question: And the IC50 (NHEK)?
Answer: Its IC50 is 30 nM.

Question: And the “%T/C Day 7” value [1, 6]?
Answer: The value was 69%.

Question: What about the “%T/C Day 14” value [1, 6] of the same molecule?
Answer: The value was 74%.

Question: What about the “%T/C Day 21” value [1, 6] of the same molecule?
Answer: Its value is 116%.

Question: What about the “%T/C Day 28” value [1, 6] of the same molecule?
Answer: The value was 136%.

Question: And the “S/T = No. Survivors/No. Treated” value [1, 6]?
Answer: Its value is 5/5.

Question: And the “%T/C Day 7” value [1, 7]?
Answer: Its value is 44 (d) %.

Question: What about the “%T/C Day 14” value [1, 7] of the same molecule?
Answer: Its value is 55 (d) %.

Question: What about the “%T/C Day 21” value [1, 7] of the same molecule?
Answer: Its value is 87%.

Question: And the “%T/C Day 28” value [1, 7]?
Answer: Its value is 102%.

Question: And the “S/T = No. Survivors/No. Treated” value [1, 7]?
Answer: The value was 5/5.

Question: And the “tumor growth was inhibited” value ([1]; day 7)?
Answer: The value was 66%.

Question: What about the “tumor growth was inhibited” value ([1]; day 14) of the same molecule?
Answer: The value was 63%.

Question: What about the “tumor growth was inhibited” value ([1]; day 28) of the same molecule?
Answer: The value was 57%.

Question: What about the “%T/C Day 7” value [1, 8] of the same molecule?
Answer: The value was 34(d) %.

Question: And the “%T/C Day 14” value [1, 8]?
Answer: Its value is 37(d) %.

Question: And the “%T/C Day 21” value [1, 8]?
Answer: The value was 51%.

Question: What about the “%T/C Day 28” value [1, 8] of the same molecule?
Answer: The value was 43%.

Question: And the “S/T = No. Survivors/No. Treated” value [1, 8]?
Answer: The value was 5/5.

Question: And the IC50 (HL60)?
Answer: The IC50 was 0.0625 µg/mL (≈ 0.152 µM).

Question: What about the IC50 (CCL228) of the same molecule?
Answer: The IC50 was 0.0715 µg/mL (≈ 0.174 µM).

Question: And the IC50 (CCRF-CFM)?
Answer: The IC50 was 0.068 µg/mL (≈ 0.165 µM).

Question: And the IC50 (T47D)?
Answer: The IC50 was 0.0467 µg/mL (≈ 0.113 µM).

Question: And the IC50 (NEC)?
Answer: The IC50 was 0.0671 µg/mL (≈ 0.163 µM).

Question: And the IC50 (CACO2)?
Answer: The IC50 was 0.0701 µg/mL (≈ 0.17 µM).

Question: What about the IC50 (SW948) of the same molecule?
Answer: The IC50 was 0.0683 µg/mL (≈ 0.166 µM).

Question: And the IC50 [2]?
Answer: The IC50 was 130 nM.

Question: And the IC50 (CX1)?
Answer: The IC50 was 0.0618 µg/mL (≈ 0.15 µM).

Question: And the IC50 (LX1)?
Answer: Its IC50 is 0.076 µg/mL (≈ 0.184 µM).

Question: What about the IC50 (SW620; Table 4) of the same molecule?
Answer: The IC50 was 0.0672 µg/mL (≈ 0.163 µM).

Question: What about the IC50 (SW620; Table 8) of the same molecule?
Answer: Its IC50 is less than 0.01 µg/mL.

Question: What about the IC50 (DU145) of the same molecule?
Answer: The IC50 was 0.068 µg/mL (≈ 0.165 µM).

Question: And the IC50 (A431 [3])?
Answer: Its IC50 is 1500 nM.

Question: And the IC50 [4]?
Answer: Its IC50 is 8000 nM and 5000 nM.

Question: What about the IC50 (LS174T) of the same molecule?
Answer: Its IC50 is 0.0468 µg/mL (≈ 0.114 µM).

Question: What about the IC50 (A431 [5]; Table 6) of the same molecule?
Answer: Its IC50 is 0.0446 µg/mL (≈ 0.108 µM).

Question: What about the IC50 (A431 [5]; Table 8) of the same molecule?
Answer: The IC50 was less than 0.01 µg/mL.

Question: And the IC50 (LOX; Table 6)?
Answer: Its IC50 is 0.0605 µg/mL (≈ 0.147 µM).

Question: What about the IC50 (LOX; Table 8) of the same molecule?
Answer: The IC50 was 0.03 µg/mL (≈ 0.0728 µM).

Question: What about the IC50 (HCT15) of the same molecule?
Answer: The IC50 was 0.0395 µg/mL (≈ 0.0959 µM).
